Data reported in ChEMBL document CHEMBL1140629, “2D QSAR studies on thyroid hormone receptor ligands” (Bioorg Med Chem, 2007).

How the values were obtained:
[1] = biological target: T1, Thyroid hormone receptor beta (Homo sapiens, UniProt P10828)
T1 sequence (P10828 whole entry): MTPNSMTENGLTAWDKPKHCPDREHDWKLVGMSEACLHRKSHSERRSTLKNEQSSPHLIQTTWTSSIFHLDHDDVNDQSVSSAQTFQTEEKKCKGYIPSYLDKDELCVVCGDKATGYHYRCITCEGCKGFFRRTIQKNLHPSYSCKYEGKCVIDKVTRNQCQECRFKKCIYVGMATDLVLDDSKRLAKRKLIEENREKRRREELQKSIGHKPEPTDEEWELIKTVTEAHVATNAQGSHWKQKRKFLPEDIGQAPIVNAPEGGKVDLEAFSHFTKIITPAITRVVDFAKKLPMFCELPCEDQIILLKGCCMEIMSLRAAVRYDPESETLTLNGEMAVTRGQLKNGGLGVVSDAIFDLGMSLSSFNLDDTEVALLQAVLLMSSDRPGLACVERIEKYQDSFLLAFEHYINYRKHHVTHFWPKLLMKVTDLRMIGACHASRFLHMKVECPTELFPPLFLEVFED

[2] = biological target: T2, Thyroid hormone receptor alpha (Homo sapiens, UniProt P10827)
T2 sequence (P10827 whole entry): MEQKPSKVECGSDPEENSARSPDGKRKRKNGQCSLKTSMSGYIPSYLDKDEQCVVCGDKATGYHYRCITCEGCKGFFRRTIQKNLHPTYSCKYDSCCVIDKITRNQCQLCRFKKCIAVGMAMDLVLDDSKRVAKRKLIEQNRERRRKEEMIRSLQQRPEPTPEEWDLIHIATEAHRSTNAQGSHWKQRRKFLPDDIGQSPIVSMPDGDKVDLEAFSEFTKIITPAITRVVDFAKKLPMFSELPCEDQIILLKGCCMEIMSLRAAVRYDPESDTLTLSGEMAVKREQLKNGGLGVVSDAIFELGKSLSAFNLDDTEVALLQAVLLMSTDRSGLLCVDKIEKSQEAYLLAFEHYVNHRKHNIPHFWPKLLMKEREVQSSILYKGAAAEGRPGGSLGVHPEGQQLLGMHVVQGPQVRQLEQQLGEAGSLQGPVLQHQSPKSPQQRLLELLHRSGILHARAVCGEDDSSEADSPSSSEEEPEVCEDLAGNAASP

Structure (SMILES)	IC50 [1]	IC50 [2]
O=C(O)CCc1cc(Br)c(OC2CCCCC2)c(Br)c1	191 nM	457 nM
CC(C)c1cc(Oc2c(Br)cc3c(c2Br)CC(C(=O)O)N3)ccc1O (stereo unspecified)	8.51 nM	38 nM
O=C(O)Cc1cc(Cl)c(Oc2ccc(O)c(C(=O)NCc3ccccc3)c2)c(Cl)c1	3.47 nM	126 nM
CCCCOc1c(Br)cc(CC(=O)O)cc1Br		26300 nM
O=C(O)Cc1cc(Cl)c(Oc2ccc(O)c(-c3ccccc3)c2)c(Cl)c1		129 nM
O=C(O)Cc1cc(Cl)c(Oc2ccc(O)c(-c3ccccc3C(F)(F)F)c2)c(Cl)c1	3.24 nM	
O=C(O)Cc1cc(Br)c(Oc2ccc(O)c(C(=O)NCc3ccccc3)c2)c(Br)c1		85.1 nM
CC(C)c1cc(Oc2c(Cl)cc3[nH]c(C(=O)O)cc(=O)c3c2Cl)ccc1O	15.1 nM	

The remaining lines, values ahead:

IC50 [1]	IC50 [2]	Structure (SMILES)
0.851 nM		O=C(O)Cc1cc(Cl)c(Oc2ccc(O)c(-c3cccc(C(F)(F)F)c3)c2)c(Cl)c1
	240 nM	O=C(O)Cc1cc(Br)c(Oc2ccc(O)c(Oc3ccc(O)cc3)c2)c(Br)c1
776 nM	2690 nM	O=C(O)Cc1cc(Br)c(OC2CCCCC2)c(Br)c1
	1170 nM	O=C(O)Cc1cc(Cl)c(Oc2ccc(O)c(-c3cccc(O)c3)c2)c(Cl)c1
35.5 nM		O=C(O)Cc1cc(Br)c(Oc2ccc(O)c(C(=O)Nc3ccccc3)c2)c(Br)c1
	1150 nM	O=C(O)Cc1cc(Br)c(Oc2ccc(O)c(C(=O)NCCc3ccccn3)c2)c(Br)c1
4.9 nM		COc1cccc(CCNC(=O)c2cc(Oc3c(Br)cc(CC(=O)O)cc3Br)ccc2O)c1
9.55 nM	339 nM	O=C(O)Cc1cc(Br)c(Oc2ccc(O)c(Cc3ccc(C(F)(F)F)cc3)c2)c(Br)c1
